Measured values taken from US10273223B2, “Substituted 6,5-fused bicyclic heteroaryl compounds” (Epizyme, Inc., priority 2011, dated 2019).

Tests used:
[1] = molecular target: EZH2 (PRC2 enzyme complex: EZH2, EED, Suz12, RbAp48) (Homo sapiens (Human), UniProt O75530+Q09028+Q15022+Q15910); experiment: PRC2 enzyme assay on peptide substrates (3H-SAM Flashplate)
Source text: S-adenosylmethionine (SAM), S-adenosylhomocyteine (SAH), bicine, KCl, Tween20, dimethylsulfoxide (DMSO) and bovine skin gelatin (BSG) were purchased from Sigma-Aldrich at the highest level of purity possible. Dithiothreitol (DTT) was purchased from EMD. ^3H-SAM was purchased from American Radiolabeled Chemicals with a specific activity of 80 Ci/mmol. 384-well streptavidin Flashplates were purchased from PerkinElmer.
Recombinant PRC2 Enzymes. Human PRC2 enzymes were purified as 4-component enzyme complexes co-expressed in Spodoptera frugiperda (sf9) cells using a baculovirus expression system. The subunits expressed were wild-type EZH2 (NM_004456) or EZH2 Y641F, N, H, S or C mutants generated from the wild-type EZH2 construct, EED (NM_003797), Suz12 (NM_015355) and RbAp48 (NM_005610). The EED subunit contained an N-terminal FLAG tag that was used to purify the entire 4-component complex from sf9 cell lysates. The purity of the complexes met or exceeded 95% as determined by SDS-PAGE and Agilent Bioanalyzer analysis.
The assays were all performed in a buffer consisting of 20 mM bicine (pH=7.6), 0.5 mM DTT, 0.005% BSG and 0.002% Tween20, prepared on the day of use. […] DMSO (1 μL) was added to columns 11, 12, 23, 24, rows A-H for the maximum signal control, and SAH, a known product and inhibitor of PRC2 (1 μL) was added to columns 11,12, 23, 24, rows I-P for the minimum signal control. A cocktail (40 μL) containing the wild-type PRC2 enzyme and H3K27me0 peptide or any of the Y641 mutant enzymes and H3K27me2 peptide was added by Multidrop Combi (Thermo). The compounds were allowed to incubate with PRC2 for 30 min at 25° C., then a cocktail (10 μL) containing a mixture of non-radioactive and ^3H-SAM was added to initiate the reaction (final volume=51 μL). […] The assays were stopped by the addition of non-radioactive SAM (10 μL) to a final concentration of 600 μM, which dilutes the ^3H-SAM to a level where its incorporation into the peptide substrate is no longer detectable. 50 μL of the reaction in the 384-well polypropylene plate was then transferred to a 384-well Flashplate and the biotinylated peptides were allowed to bind to the streptavidin surface for at least 1 h before being washed three times with 0.1% Tween20 in a Biotek ELx405 plate washer. The plates were then read in a PerkinElmer TopCount platereader to measure the quantity of ^3H-labeled peptide bound to the Flashplate surface, measured as disintegrations per minute (dpm) or alternatively, referred to as counts per minute (cpm).
The Hill Coefficient normally allowed to float but may also be fixed at 1 in a 3-parameter fit. Y is the % inhibition and X is the compound concentration.

[2] = molecular target: EZH2 (PRC2 enzyme complex: EZH2, EED, Suz12, RbAp48) (Homo sapiens (Human), UniProt Q15910); experiment: as above; conditions: read-out: EZH2 IC50; PRC2 enzyme assays on peptide substrates; 4 nM enzyme, 30 min preincubation at 25° C.; EZH2 form (wild-type or Y641 mutant) not stated in tables
EZH2 (PRC2 enzyme complex: EZH2, EED, Suz12, RbAp48) (Homo sapiens (Human), UniProt Q15910), sequence (Q15910 other isoform, or with tags, fused parts or gaps): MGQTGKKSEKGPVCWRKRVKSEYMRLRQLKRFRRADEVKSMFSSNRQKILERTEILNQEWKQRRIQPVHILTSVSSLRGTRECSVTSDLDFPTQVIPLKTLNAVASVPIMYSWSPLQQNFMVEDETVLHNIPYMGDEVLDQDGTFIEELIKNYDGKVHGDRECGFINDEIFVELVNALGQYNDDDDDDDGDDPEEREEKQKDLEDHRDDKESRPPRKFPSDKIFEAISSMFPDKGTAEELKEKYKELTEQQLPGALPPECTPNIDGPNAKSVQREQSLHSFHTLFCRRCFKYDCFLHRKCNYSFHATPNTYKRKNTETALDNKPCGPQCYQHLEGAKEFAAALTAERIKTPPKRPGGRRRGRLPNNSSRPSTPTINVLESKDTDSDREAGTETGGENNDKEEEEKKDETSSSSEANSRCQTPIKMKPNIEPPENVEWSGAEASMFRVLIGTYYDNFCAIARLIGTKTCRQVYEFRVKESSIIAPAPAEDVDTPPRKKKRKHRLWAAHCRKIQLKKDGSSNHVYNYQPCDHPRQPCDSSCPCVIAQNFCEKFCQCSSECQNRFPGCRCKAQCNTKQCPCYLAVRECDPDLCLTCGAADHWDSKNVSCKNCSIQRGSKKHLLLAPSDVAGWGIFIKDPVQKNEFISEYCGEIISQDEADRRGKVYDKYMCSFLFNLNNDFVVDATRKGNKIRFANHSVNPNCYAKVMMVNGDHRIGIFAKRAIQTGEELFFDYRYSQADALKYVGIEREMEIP
EZH2 (PRC2 enzyme complex: EZH2, EED, Suz12, RbAp48) (Homo sapiens (Human), UniProt Q15910), sequence (O75530 whole entry partner): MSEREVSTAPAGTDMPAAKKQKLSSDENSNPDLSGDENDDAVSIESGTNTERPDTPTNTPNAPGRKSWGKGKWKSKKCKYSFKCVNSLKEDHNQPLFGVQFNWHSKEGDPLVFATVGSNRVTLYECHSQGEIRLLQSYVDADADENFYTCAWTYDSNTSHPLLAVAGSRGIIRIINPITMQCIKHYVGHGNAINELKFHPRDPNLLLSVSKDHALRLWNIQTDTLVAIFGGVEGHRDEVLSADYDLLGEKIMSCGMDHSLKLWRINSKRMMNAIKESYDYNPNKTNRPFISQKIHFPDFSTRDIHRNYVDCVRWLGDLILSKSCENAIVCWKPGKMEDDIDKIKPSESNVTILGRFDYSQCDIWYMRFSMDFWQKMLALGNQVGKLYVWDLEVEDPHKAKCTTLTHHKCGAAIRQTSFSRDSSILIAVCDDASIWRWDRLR
EZH2 (PRC2 enzyme complex: EZH2, EED, Suz12, RbAp48) (Homo sapiens (Human), UniProt Q15910), sequence (Q15022 whole entry partner): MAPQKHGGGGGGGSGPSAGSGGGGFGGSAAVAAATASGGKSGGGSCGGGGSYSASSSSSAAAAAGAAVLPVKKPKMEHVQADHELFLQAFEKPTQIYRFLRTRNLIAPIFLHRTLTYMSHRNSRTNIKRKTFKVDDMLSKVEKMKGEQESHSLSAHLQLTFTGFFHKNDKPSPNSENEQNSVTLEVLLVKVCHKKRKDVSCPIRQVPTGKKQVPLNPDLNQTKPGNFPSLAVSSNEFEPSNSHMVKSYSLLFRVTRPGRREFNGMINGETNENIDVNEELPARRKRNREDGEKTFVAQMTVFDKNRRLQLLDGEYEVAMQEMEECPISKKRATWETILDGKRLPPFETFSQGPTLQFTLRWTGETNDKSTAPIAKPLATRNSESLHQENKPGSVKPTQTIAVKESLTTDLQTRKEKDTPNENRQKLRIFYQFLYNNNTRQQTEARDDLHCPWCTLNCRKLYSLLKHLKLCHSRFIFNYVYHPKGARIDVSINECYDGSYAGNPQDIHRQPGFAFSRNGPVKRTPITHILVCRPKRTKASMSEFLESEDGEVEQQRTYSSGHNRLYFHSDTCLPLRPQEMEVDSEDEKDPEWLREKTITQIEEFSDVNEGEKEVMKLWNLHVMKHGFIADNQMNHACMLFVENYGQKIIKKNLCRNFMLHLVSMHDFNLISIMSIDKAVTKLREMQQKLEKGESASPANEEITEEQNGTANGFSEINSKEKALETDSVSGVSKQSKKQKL
EZH2 (PRC2 enzyme complex: EZH2, EED, Suz12, RbAp48) (Homo sapiens (Human), UniProt Q15910), sequence (Q09028 whole entry partner): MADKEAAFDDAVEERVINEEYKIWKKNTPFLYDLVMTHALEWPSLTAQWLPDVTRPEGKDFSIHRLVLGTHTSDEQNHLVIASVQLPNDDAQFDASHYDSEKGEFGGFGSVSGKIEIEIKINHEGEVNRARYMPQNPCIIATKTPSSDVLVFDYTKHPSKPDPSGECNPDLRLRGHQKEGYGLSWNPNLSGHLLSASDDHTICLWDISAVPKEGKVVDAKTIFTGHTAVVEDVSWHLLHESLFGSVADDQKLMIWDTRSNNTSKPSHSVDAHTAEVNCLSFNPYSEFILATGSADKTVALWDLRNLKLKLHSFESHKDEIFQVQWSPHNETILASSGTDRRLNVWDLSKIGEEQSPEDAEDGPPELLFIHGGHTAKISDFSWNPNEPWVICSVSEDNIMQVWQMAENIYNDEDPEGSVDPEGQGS

EZH2 (PRC2 enzyme complex: EZH2, EED, Suz12, RbAp48) (Homo sapiens (Human), UniProt O75530+Q09028+Q15022+Q15910), sequence (Q15910 other isoform, or with tags, fused parts or gaps): as the sequence (Q15910 other isoform, or with tags, fused parts or gaps) above
EZH2 (PRC2 enzyme complex: EZH2, EED, Suz12, RbAp48) (Homo sapiens (Human), UniProt O75530+Q09028+Q15022+Q15910), sequence (O75530 whole entry partner): as the sequence (O75530 whole entry partner) above
EZH2 (PRC2 enzyme complex: EZH2, EED, Suz12, RbAp48) (Homo sapiens (Human), UniProt O75530+Q09028+Q15022+Q15910), sequence (Q15022 whole entry partner): as the sequence (Q15022 whole entry partner) above
EZH2 (PRC2 enzyme complex: EZH2, EED, Suz12, RbAp48) (Homo sapiens (Human), UniProt O75530+Q09028+Q15022+Q15910), sequence (Q09028 whole entry partner): as the sequence (Q09028 whole entry partner) above

Row | IC50 [1] [µM] | IC50 [2] [µM] | SMILES
1 | 0.3 to 1 | – | Cc1cc(C)c(CNC(=O)c2cc(-c3cccc(CN(C)CCN4CCCC4)c3)nc3c2cnn3C(C)C)c(=O)[nH]1 [Compound A-41]
2 | 0.3 to 1 | – | Cc1cc(C)c(CNC(=O)c2c(Cl)c(-c3ccc4c(c3)OCCO4)nc3c2cnn3C(C)C)c(=O)[nH]1 [Compound A-47]
3 | 1 to 3 | – | CNCCN(C)Cc1cccc(-c2cc(C(=O)NCc3c(C)cc(C)[nH]c3=O)c3cnn(C(C)C)c3n2)c1 [Compound A-58]
4 | 3 to 10 | – | Cc1cc(C)c(CNC(=O)c2cc(-c3ccccc3CN)nc3c2cnn3C(C)C)c(=O)[nH]1 [Compound A-68]
5 | 10 to 50 | – | Cc1cc(C)n(C)c(=O)c1CNC(=O)c1cc(-c2cccc(CN(C)CCN(C)C)c2)nc2c1cnn2C(C)C [Compound A-74]
6 | 10 to 50 | – | Cc1cc[nH]c(=O)c1CNC(=O)c1cc(-c2ccc3c(c2)OCCO3)nc2c1cnn2C(C)(C)C [Compound A-77]
7 | 1 to 3 | – | Cc1cc(C)c(CNC(=O)c2cc(-c3cccc(CNCCCN(C)C)c3)nc3c2cnn3C(C)C)c(=O)[nH]1 [Compound A-125]
8 | – | < 0.3 | Cc1cc(C)c(CNC(=O)c2cc(C3CC(C)(C)NC(C)(C)C3)nc3c2cnn3C2CCCC2)c(=O)[nH]1 [Compound B-4, 1-cyclopentyl-N-((4,6-dimethyl-2-oxo-1,2-dihydropyridin-3-yl)methyl)-6-(2,2,6,6-tetramethylpiperidin-4-yl)-1H-pyrazolo[3,4-b]pyridine-4-carboxamide]
9 | 1 to 3 | – | Cc1cc(C)c(CNC(=O)c2cc(C(C)C)nc3c2cnn3C(C)C)c(=O)[nH]1 [Compound B-109]
10 | 10 to 50 | – | Cc1cc(C(C)C)c(CNC(=O)c2cc(C3=CC(C)(C)NC(C)(C)C3)nc3c2cnn3C(C)C)c(=O)[nH]1 [Compound B-148]
11 | – | < 0.3 | CC1=CC(C)=C(CNC(=O)c2cc(C3=CCN(C(=O)C4CN(C)C4)CC3)cc3c2cnn3C2CCCC2)C(C)N1 [Compound D-50]
12 | – | < 0.3 | CNCCN1CCC(c2cc(C(=O)NCC3=C(C)C=C(C)NC3C)c3cnn(C4CCCC4)c3c2)CC1 [Compound D-51]
